Experimental data as given in publication PMC8272913 (ACS chemical neuroscience, 2019).
Read-outs that look alike come from different tables or passages of the source.

Tests used:
rat SERT (rSERT) = rat SERT (rSERT) (Rattus norvegicus, UniProt P31652); assay: Inhibition of [3H]citalopram binding to rSERT from rat brain tissue; settings: for Ki: read-out: Ki, binding affinity for rSERT; for fold decrease in rSERT binding affinity relative to paroxetine: vs paroxetine
hSERT = hSERT (Homo sapiens, UniProt P31645); type: binding
hSERT WT [1] = molecular target: T1, hSERT WT (Homo sapiens, UniProt P31645); settings: read-out: Ki (nM) RTI-55 Binding WT
hSERT-A169D [2] = molecular target: T2, hSERT-A169D (Homo sapiens, UniProt P31645, A169D); type: binding
hSERT WT [3] = molecular target: T1, hSERT WT; type: cell-based; settings: read-out: Ki (nM) 5-HT Transport WT
hSERT-A169D [4] = molecular target: T2, hSERT-A169D; type: cell-based

rat SERT (rSERT), sequence (P31652 whole entry): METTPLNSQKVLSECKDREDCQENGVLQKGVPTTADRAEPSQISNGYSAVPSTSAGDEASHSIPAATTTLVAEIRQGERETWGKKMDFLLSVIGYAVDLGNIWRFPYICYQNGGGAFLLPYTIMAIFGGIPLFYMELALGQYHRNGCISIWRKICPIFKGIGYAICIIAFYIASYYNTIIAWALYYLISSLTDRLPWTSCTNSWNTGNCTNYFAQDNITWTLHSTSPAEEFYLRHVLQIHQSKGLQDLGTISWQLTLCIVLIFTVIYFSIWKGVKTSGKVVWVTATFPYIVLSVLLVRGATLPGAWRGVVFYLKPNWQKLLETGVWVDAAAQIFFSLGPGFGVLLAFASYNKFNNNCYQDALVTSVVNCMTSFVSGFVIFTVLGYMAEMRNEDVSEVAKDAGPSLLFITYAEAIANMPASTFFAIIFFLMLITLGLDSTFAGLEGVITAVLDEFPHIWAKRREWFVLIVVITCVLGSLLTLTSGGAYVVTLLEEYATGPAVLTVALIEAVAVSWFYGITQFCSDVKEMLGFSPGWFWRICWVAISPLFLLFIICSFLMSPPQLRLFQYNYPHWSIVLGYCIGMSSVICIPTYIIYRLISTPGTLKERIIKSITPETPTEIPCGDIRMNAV

SMILES: Brc1ccc([C@@H]2CCNC[C@H]2COc2ccc3c(c2)OCO3)cc1 [compound 13, 4-bromoparoxetine]
- Ki (rat SERT (rSERT)): 4.9 nM
- fold decrease in rSERT binding affinity relative to paroxetine (rat SERT (rSERT)): 16 fold
- fold reduction in binding affinity as compared to paroxetine (hSERT): ~ 4 fold
- Ki (hSERT; read-out: Ki, binding affinity): 0.32 ± 0.028 nM
- Ki (hSERT WT [1]): 1.07 ± 0.3 nM
- RTI-55 Binding Sensitivity toward the A169D mutation (hSERT-A169D [2]; A169D versus WT): 1.6
- Ki (hSERT-A169D [2]; read-out: Ki (nM) RTI-55 Binding A169D, hSERT A169D): 1.72 ± 0.39 nM
- Ki (hSERT WT [3]): 2.3 ± 0.27 nM
- 5-HT Transport Sensitivity toward the A169D mutation (hSERT-A169D [4]; A169D versus WT): 2.8
- Ki (hSERT-A169D [4]; read-out: Ki (nM) 5-HT Transport A169D, hSERT A169D): 6.37 ± 0.74 nM

SMILES: CN1CC[C@@H](c2ccc(F)cc2)[C@H](COc2ccc3c(c2)OCO3)C1 [compound 14]
- Ki (rat SERT (rSERT)): 2.95 nM
- fold decrease in rSERT binding affinity relative to paroxetine (rat SERT (rSERT)): 9.5 fold

SMILES: Fc1ccc(C2CCN(Cc3ccc(Br)cc3)CC2COc2ccc3c(c2)OCO3)cc1 (centres unmarked) [compound 3]
- Ki (rat SERT (rSERT)): 204 nM

SMILES: c1ccc([C@@H]2CCNC[C@H]2COc2ccc3c(c2)OCO3)cc1 [compound 15, desfluoroparoxetine]
- Ki (rat SERT (rSERT)): 0.557 nM

SMILES: CCCCCCN1CCC(c2ccc(F)cc2)C(COc2ccc3c(c2)OCO3)C1 (centres unmarked) [compound 1]
- Ki (rat SERT (rSERT)): 395 nM

SMILES: O=C(Cc1ccc(Br)cc1)N1CCC(c2ccc(F)cc2)C(COc2ccc3c(c2)OCO3)C1 (centres unmarked) [compound 6]
- Ki (rat SERT (rSERT)): 3820 nM

SMILES: CCCN1CCC(c2ccc(F)cc2)C(COc2ccc3c(c2)OCO3)C1 (centres unmarked) [compound 2]
- Ki (rat SERT (rSERT)): 98 nM
